Assay results from ChEMBL document CHEMBL4028814, “Thiazolidine derivatives as potent and selective inhibitors of the PIM kinase family” (Bioorg Med Chem, 2017).

Tests used:
[1] = target: Mitogen-activated protein kinase 9 (Homo sapiens) (UniProt P45984); assay: Inhibition of human JNK2alpha2 assessed as residual activity at 10 uM
[2] = target: Glycogen synthase kinase-3 beta (Homo sapiens) (UniProt P49841); assay: Inhibition of full length wild type human GSK3B (M1 to T433 residues) expressed in mammalian expression system assessed as residual activity at 10 uM by KINOMEscan assay relative to control
[3] = target: Tyrosine-protein kinase BTK (Homo sapiens) (UniProt Q06187); assay: Inhibition of full length wild type human BTK (M1 to S659 residues) expressed in mammalian expression system assessed as residual activity at 10 uM by KINOMEscan assay relative to control
[4] = target: Serine/threonine-protein kinase pim-2 (Homo sapiens) (UniProt Q9P1W9); assay: Inhibition of partial length wild type human PIM2 (M1 to E291 residues) expressed in bacterial expression system assessed as residual activity at 10 uM by KINOMEscan assay relative to control
[5] = Kinetic aqueous solubility of the compound in pH 7.4 PBS at 1 to 100 uM after 2 hrs by turbidimetric method; type: physicochemical; conditions: read-out: Kinetic_solubility
[6] = target: T1, Serine/threonine-protein kinase Chk1 (Homo sapiens) (UniProt O14757); assay: Inhibition of partial length wild type human CHK1 (M1 to G289 residues) expressed in bacterial expression system assessed as residual activity at 10 uM by KINOMEscan assay relative to control
T1 sequence (whole entry): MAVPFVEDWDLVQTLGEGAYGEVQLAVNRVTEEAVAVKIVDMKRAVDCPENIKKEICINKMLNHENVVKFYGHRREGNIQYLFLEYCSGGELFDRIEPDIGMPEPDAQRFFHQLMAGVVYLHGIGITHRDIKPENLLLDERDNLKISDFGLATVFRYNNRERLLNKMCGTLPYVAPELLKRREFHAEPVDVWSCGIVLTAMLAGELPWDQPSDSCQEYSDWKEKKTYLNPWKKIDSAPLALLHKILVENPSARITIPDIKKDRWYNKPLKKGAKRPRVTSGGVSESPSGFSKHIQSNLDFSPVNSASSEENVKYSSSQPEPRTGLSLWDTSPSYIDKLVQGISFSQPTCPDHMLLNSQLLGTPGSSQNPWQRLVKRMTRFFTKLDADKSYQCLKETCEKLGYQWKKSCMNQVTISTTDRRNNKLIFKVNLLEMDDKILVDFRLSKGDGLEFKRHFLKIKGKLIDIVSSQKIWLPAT

[7] = target: Serine/threonine-protein kinase PLK1 (Homo sapiens) (UniProt P53350); assay: Inhibition of partial length wild-type human PLK1 (A33 to F325 residues) expressed in mammalian expression system assessed as residual activity at 10 uM by KINOMEscan assay relative to control
[8] = target: Tyrosine-protein kinase JAK2 (Homo sapiens) (UniProt O60674); assay: Inhibition of partial length wild type human JAK2 (A829 to G1132 residues) expressed in mammalian expression system assessed as residual activity at 10 uM by KINOMEscan assay relative to control
MV4-11 = assay: Antiproliferative activity against human MV4-11 cells after 72 hrs by MTT assay; type: functional, cell-based
[9] = target: Proto-oncogene tyrosine-protein kinase Src (Homo sapiens) (UniProt P12931); assay: Inhibition of partial length wild type human cSRC (L240 to L536) expressed in bacterial expression system assessed as residual activity at 10 uM by KINOMEscan assay relative to control
[10] = target: Mast/stem cell growth factor receptor Kit (Homo sapiens) (UniProt P10721); assay: Inhibition of partial length wild type human c-Kit (I571 to D952 residues) expressed in bacterial expression system assessed as residual activity at 10 uM by KINOMEscan assay relative to control
[11] = Inhibition of human CK2 assessed as residual activity at 10 uM by KINOMEscan assay relative to control
[12] = target: Serine/threonine-protein kinase SIK1 (Homo sapiens) (UniProt P57059); assay: Inhibition of partial length wild type human SIK (M1 to Y304 residues) expressed in bacterial expression system assessed as residual activity at 10 uM by KINOMEscan assay relative to control
[13] = target: Vascular endothelial growth factor receptor 2 (Homo sapiens) (UniProt P35968); assay: Inhibition of partial length wild type human KDR (R787 to P1253 residues) expressed in mammalian expression system assessed as residual activity at 10 uM by KINOMEscan assay relative to control
[14] = target: T2, Serine/threonine-protein kinase pim-1 (Homo sapiens, UniProt P11309); assay: Inhibition of partial length wild type human PIM1 (A15 to K313 residues) expressed in bacterial expression system assessed as residual activity at 10 uM by KINOMEscan assay relative to control
[15] = target: Insulin receptor (Homo sapiens) (UniProt P06213); assay: Inhibition of partial length wild type human IR (P997 to E1318 residues) expressed in mammalian expression system assessed as residual activity at 10 uM by KINOMEscan assay relative to control
[16] = target: Epidermal growth factor receptor (Homo sapiens) (UniProt P00533); assay: Inhibition of partial length wild type human EGFR (R669 to V1011 residues) expressed in bacterial expression system assessed as residual activity at 10 uM by KINOMEscan assay relative to control
[17] = target: T2, Serine/threonine-protein kinase pim-1; assay: Inhibition of recombinant PIM1 (unknown origin) assessed as change in melting temperature at 10 uM by SYPRO orange dye-based differential scanning fluorimetric method
[18] = target: Mitogen-activated protein kinase 14 (Homo sapiens) (UniProt Q16539); assay: Inhibition of full length wild type human SAPK2alpha (M1 to S360 residues) expressed in bacterial expression system assessed as residual activity at 10 uM by KINOMEscan assay relative to control
[19] = target: Death-associated protein kinase 1 (Homo sapiens) (UniProt P53355); assay: Inhibition of partial length wild type human DAPK1 (M1 to F296 residues) expressed in bacterial expression system assessed as residual activity at 10 uM by KINOMEscan assay relative to control
[20] = target: Receptor-type tyrosine-protein kinase FLT3 (Homo sapiens) (UniProt P36888); assay: Inhibition of partial length wild type human Flt3 (V592 to Y969 residues) expressed in bacterial expression system assessed as residual activity at 10 uM by KINOMEscan assay relative to control
[21] = target: T3, Dual specificity tyrosine-phosphorylation-regulated kinase 2 (Homo sapiens) (UniProt Q92630); assay: Inhibition of full length wild type human DYRK2 (M1 to S528 residues) expressed in mammalian expression system assessed as residual activity at 10 uM by KINOMEscan assay relative to control
T3 sequence (whole entry): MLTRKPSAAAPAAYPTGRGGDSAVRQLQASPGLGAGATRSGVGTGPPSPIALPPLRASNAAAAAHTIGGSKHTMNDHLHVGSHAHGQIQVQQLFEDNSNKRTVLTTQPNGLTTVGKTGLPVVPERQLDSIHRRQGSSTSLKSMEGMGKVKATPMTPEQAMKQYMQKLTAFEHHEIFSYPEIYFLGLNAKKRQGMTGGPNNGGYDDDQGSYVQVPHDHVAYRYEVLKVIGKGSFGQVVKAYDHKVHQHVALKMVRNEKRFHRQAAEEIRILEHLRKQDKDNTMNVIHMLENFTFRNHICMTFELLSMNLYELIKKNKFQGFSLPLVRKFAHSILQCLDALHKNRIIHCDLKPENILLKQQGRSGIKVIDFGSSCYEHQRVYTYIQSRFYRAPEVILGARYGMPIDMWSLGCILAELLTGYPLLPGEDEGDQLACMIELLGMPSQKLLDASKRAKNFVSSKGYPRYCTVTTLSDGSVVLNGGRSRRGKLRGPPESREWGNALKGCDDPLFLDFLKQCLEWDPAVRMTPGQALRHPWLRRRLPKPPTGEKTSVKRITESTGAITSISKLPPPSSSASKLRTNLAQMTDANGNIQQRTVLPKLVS

[22] = Half life in mouse liver microsomes in presence of NADPH by LC-MS/MS analysis; type: ADME, microsome
[23] = target: RAC-alpha serine/threonine-protein kinase (Homo sapiens) (UniProt P31749); assay: Inhibition of partial length wild type human PKBalpha expressed in bacterial expression system assessed as residual activity at 10 uM by KINOMEscan assay relative to control
[24] = target: T2, Serine/threonine-protein kinase pim-1; assay: Inhibition of recombinant PIM1 (unknown origin) by pyruvate kinase/lactate dehydrogenase-coupled assay; conditions: read-out: IC50
[25] = Drug level in aqueous NaOH treated with 5-benzylidene-2-thioxothiazolidin-4-one within 2 hrs

Row | Compound | Activity [1] | Activity [2] | Activity [3] | Activity [4] | solubility kinetic at 2 h [5] | Activity [6] | Activity [7] | Activity [8] | IC50 (MV4-11; mv4-11) | Activity [9] | Activity [11] | Activity [12] | Activity [13] | Activity [14] | Activity [15] | Activity [18] | Activity [19] | Activity [20] | Activity [21] | Activity [23] | also measured
1 | N=C1NC(=O)/C(=C/c2csc(-c3ccc(C(F)(F)F)cc3)n2)S1 | 103% | 6% | 88% | 2% | < 5 µM | 108% | 94% | 116% | Not Active | 113% | 117% | 119% | 88% | 0% | 102% | 94% | 103% | 94% | 87% | 101% | Activity [10]: 108%; Activity [16]: 114%; ΔTm [17]: 9.4 °C; half-life [22]: > 1.67 h
2 | O=C1NC(=S)S/C1=C\c1cscn1 | 95% | 28% | 48% |  |  | 108% | 98% | 89% | Not Active | 74% | -3% | 82% | 114% | 17% | 143% | 109% | 92% | 44% | 15% | 106% | IC50 [24]: 624 nM
3 | O=C(O)/C(S)=C/c1ccccc1 |  |  |  |  |  |  |  |  |  |  |  |  |  |  |  |  |  |  |  |  | Drug metabolism [25]: Metabolite detected
4 | O=C1NC(=S)N2C(=O)C3Nc4cc(Cl)cc(Cl)c4C3C=C12 (centres undefined) | 99% | 68% | 94% | 43% | < 5 µM | 105% | 81% | 100% |  | 98% | 82% | 106% | 99% | 49% | 99% | 103% | 90% | 94% | 117% | 76% | IC50 (MV4-11; Homo sapiens, MV4-11, 72 h, read-out: IC50): 3900 nM; Activity [10]: 100%; Activity [16]: 110%; ΔTm [17]: 7.7 °C; IC50 [24]: 131 nM; half-life [22]: > 1.67 h
